# In US5885992A, “Triterpene derivative and medicinal composition” (Nippon Shinyaku Company, Limited, priority 1994, dated 1999):
# Assays:
# glomeruli = experiment: Effect on nephritis in MRL/lpr mice: histopathological findings of glomeruli; type: in vivo, mouse; conditions: 10 weeks; for Incidence of glomerular lesions, grade - (no remarkable change): control 1; for Incidence of glomerular lesions, grade 4+ (extremely marked change): control 8, **P < 0.01; for Incidence of glomerular lesions, grade 1+ (slight change): control 14; for Incidence of glomerular lesions, grade 3+ (marked change): control 25; for Incidence of glomerular lesions, grade 2+ (moderate change): control 52
# Procedure: (§1) Effect on nephritis in MRL/lpr mice
# (§2) The MRL/lpr mouse is a model of lupus nephritis in mice which spontaneously and secondarily develop proliferative glomerulonephritis due to autoimmune disease. Using this nephritis model, a 10-week long-term oral administration experiment with the test drugs was performed.
# (§3) MRL/lpr mice purchased from Jackson Laboratory and maintained in Nippon Shinyaku Co., Ltd. were used.
# (§4) A suspension of each test drug was administered orally once a day on 6 days per week from the age 8 weeks for 10 weeks. During the administration period, the semi-quantitative test for urinary protein (regent strips) was performed. At the end of the administration period, the animals were sacrificed and the kidneys were removed. The kidney was fixed in 10% phosphate-buffered formalin and, in the routine manner, paraffin sections were prepared and stained with periodic acid-Schiff stain for microscopy. For histopathological evaluation, the glomerular lesions in each tissue preparation were observed by light microscopy and graded according to the method of Berden (J. Immunology, 130, 1699-1705, 1983) and the incidence (%) of each grade was calculated for each group. Statistical analysis was performed by Mann Whitney's rank-sum test.
# MRL/lpr mice = experiment: Effect on nephritis in MRL/lpr mice: incidence of proteinuria; type: in vivo, mouse; conditions: 10 weeks; for Number of animals with proteinuria, grade 1+ (30-100 mg/dl) / Number of animals with proteinuria, grade - (negative): control 0 of 12; for Number of animals with proteinuria, grade 3+ (300-1000 mg/dl): control 1 of 12; for Number of animals with proteinuria, grade 2+ (100-300 mg/dl): control 4 of 12; for Number of animals with proteinuria, grade 4+ (>1000 mg/dl): control 7 of 12, *P < 0.05
# Procedure: as §1, §2, §3, §4
# mice = experiment: Acute toxicity; type: in vivo, mouse; conditions: 2 g/kg p.o.; for Acute toxicity: abnormal findings: general condition up to 1 week; for Acute toxicity: death: observed up to 1 week
# Excerpt: Compound No. 1 and the compound No. 9 were examined.
# mesangial cells [1] = experiment: Effect on anti-Thy-1 antibody nephritis in rats (number of mesangial cells per glomerulus); type: in vivo, rat; conditions: 100 mg/kg p.o. once a day for 7 days, n=5, mean ± standard error, **P < 0.01, controls (distilled water): 59.5 ± 3.5 (No. 1), 61.8 ± 2.2 (No. 2), 54.8 ± 2.1 (No. 9), intact animal 43
# Procedure: Anti-Thy-1 antibody-induced nephritis is a model of glomerulonephritis constructed by utilizing the reaction between the Thy-1 antigen occurring as a membrane protein of mesangial cells and the antibody to the antigen. In this model, injuries to mesangial cells and lesions associated with mesangial cell proliferation are found.
# Preparation of anti-Thy-1 antibody
# Preparation of the antibody was carried out in accordance with the method of Ishizaki et al. referred to above. Thus, an adjuvant suspension of rat thymocytes was prepared and subcutaneously administered to rabbits for immunization. After two booster doses, the blood was collected and the serum separated was subjected to inactivation and absorption to provide an antiserum (anti-Thy-1 antibody).
# A predetermined amount of the antiserum was injected intravenously from the tail vein of rats to induce nephritis. Starting the following day after injection, a suspension of the test drug was administered orally once a day for 7 days. On day 8 following the beginning of administration, the animals were sacrificed and the kidneys were removed. The kidney was fixed in 10% phosphate-buffered formalin and, in the routine manner, paraffin sections were prepared and stained with periodic acid-schiff stain for microscopy. For histopathological evaluation, the number of cells in the glomeruli (mainly mesangial cells) in each tissue preparation was counted under a light microscope. Statistical analysis was performed by unpaired t-test.
# mesangial cells [2] = experiment: Inhibitory effect on mesangial cell proliferation in vitro; type: cell-based; conditions: Rattus norvegicus, 10 μg/ml, 72 hours, LPS-stimulated macrophage culture supernatant, crystal violet, relative to control, read-out: Inhibition rate of mesangial cell proliferation in vitro
# Procedure: Inhibitory effect on mesangial cell proliferation in vitro
# Glomeruli were isolated from the rat kidney by the sieving method. Mesangial cells were obtained from isolated these glomeruli which were maintained in culture. The mesangial cells were seeded on the plate and, after 24 hours, an LPS (lipopolysaccharide)-stimulated macrophage culture supernatant (a solution containing growth factor) and the test drug were added and the plate was incubated for 72 hours. The mesangial cells were fixed and stained with crystal violet and the absorbance was measured. The inhibitory activity of the mesangial cell proliferation of the test compound was evaluated in relative inhibition rate (%) in comparison with the absorbance of the control obtained under the same culture conditions.
compound,measurement,setting,value
"CC1(C)CC[C@]2(C(=O)O)CC[C@]3(C)C(=CC[C@@H]4[C@@]5(C)CC[C@H](O)[C@@](C)(CO)[C@@H]5CC[C@]43C)[C@@H]2C1 [Compound No. 1, 3β,23-dihydroxyolean-12-en-28-oic acid]","Incidence of glomerular lesions, grade - (no remarkable change)",glomeruli; 10 mg/kg p.o.,3%
same,"Incidence of glomerular lesions, grade 4+ (extremely marked change)",glomeruli; 10 mg/kg p.o.,2%
same,"Incidence of glomerular lesions, grade 1+ (slight change)",glomeruli; 10 mg/kg p.o.,29%
same,"Incidence of glomerular lesions, grade 3+ (marked change)",glomeruli; 10 mg/kg p.o.,9%
same,"Incidence of glomerular lesions, grade 2+ (moderate change)",glomeruli; 10 mg/kg p.o.,57%
same,"Incidence of glomerular lesions, grade - (no remarkable change)",glomeruli; 30 mg/kg p.o.,3%
same,"Incidence of glomerular lesions, grade 4+ (extremely marked change)",glomeruli; 30 mg/kg p.o.,0%
same,"Incidence of glomerular lesions, grade 1+ (slight change)",glomeruli; 30 mg/kg p.o.,25%
same,"Incidence of glomerular lesions, grade 3+ (marked change)",glomeruli; 30 mg/kg p.o.,9%
same,"Incidence of glomerular lesions, grade 2+ (moderate change)",glomeruli; 30 mg/kg p.o.,63%
same,"Number of animals with proteinuria, grade 1+ (30-100 mg/dl)","MRL/lpr mice; 10 mg/kg p.o., n=13",7
same,"Number of animals with proteinuria, grade - (negative)","MRL/lpr mice; 10 mg/kg p.o., n=13",0
same,"Number of animals with proteinuria, grade 3+ (300-1000 mg/dl)","MRL/lpr mice; 10 mg/kg p.o., n=13",1
same,"Number of animals with proteinuria, grade 2+ (100-300 mg/dl)","MRL/lpr mice; 10 mg/kg p.o., n=13",2
same,"Number of animals with proteinuria, grade 4+ (>1000 mg/dl)","MRL/lpr mice; 10 mg/kg p.o., n=13",3
same,"Number of animals with proteinuria, grade 1+ (30-100 mg/dl)","MRL/lpr mice; 30 mg/kg p.o., n=14",4
same,"Number of animals with proteinuria, grade - (negative)","MRL/lpr mice; 30 mg/kg p.o., n=14",3
same,"Number of animals with proteinuria, grade 3+ (300-1000 mg/dl)","MRL/lpr mice; 30 mg/kg p.o., n=14",5
same,"Number of animals with proteinuria, grade 2+ (100-300 mg/dl)","MRL/lpr mice; 30 mg/kg p.o., n=14",0
same,"Number of animals with proteinuria, grade 4+ (>1000 mg/dl)","MRL/lpr mice; 30 mg/kg p.o., n=14",2
same,Acute toxicity: abnormal findings,mice,nor was there any abnormal findings
same,Acute toxicity: death,mice,no death was encountered
same,Number of mesangial cells per glomerulus,mesangial cells [1],48.2 ± 1.6
"CC(=O)OCCOC(=O)[C@]12CCC(C)(C)C[C@H]1C1=CC[C@@H]3[C@@]4(C)CC[C@H](O)[C@@](C)(CO)[C@@H]4CC[C@@]3(C)[C@]1(C)CC2 [Compound No. 2, 2-Acetoxyethyl 3β,23(4α)-dihydroxyolean-12-en-28-oate]",Number of mesangial cells per glomerulus,mesangial cells [1],50.9 ± 1.3
same,inhibition at 10 µg/mL,mesangial cells [2],57.9%
"COCCNC(=O)[C@]12CCC(C)(C)C[C@H]1C1=CC[C@@H]3[C@@]4(C)CC[C@H](O)[C@@](C)(CO)[C@@H]4CC[C@@]3(C)[C@]1(C)CC2 [Compound No. 9, N-(2-methoxyethyl)-3β,23(4α)-dihydroxyolean-12-en-28-amide]",Acute toxicity: abnormal findings,mice,nor was there any abnormal findings
same,Acute toxicity: death,mice,no death was encountered
same,Number of mesangial cells per glomerulus,mesangial cells [1],45.8 ± 0.7
same,inhibition at 10 µg/mL,mesangial cells [2],43.3%
